Laboratory results from patent US20080226587A1, “METHODS AND COMPOSITIONS FOR IMMUNOMODULATION” (priority 2006, published 2008).

System: DDM-reactive J.RT3/CD8-2 cells
Assay: T cell stimulation by DDM after proteinase K or pronase treatment
Format: cell-based
Conditions: 4 hours at 40° C.
Excerpt: FIG. 4B is a graph depicting the proliferative response of DDM-reactive J.RT3/CD8-2 cells stimulated in the presence of mock treated DDM, DDM treated with proteinase K, DDM treated with pronase, or no antigen.
The Nex antigen is the second peptidic antigen shown to be presented by CD1. The other one, DDM, is presented by CD1a. Although processing of proteins for presentation on MHC Class I and Class II molecules is well characterized, little is known about processing of CD1-presented peptides. […] DDM has no such cleavage sites for proteases. To examine the protease sensitivity of Nex, Nex and DDM were treated with non-specific proteases and T cell stimulation by each antigen was examined.
Pronase is a mixture of endopeptidases and exopeptidases (carboxypeptidases and aminopeptidases) which digests denatured and native proteins into individual amino acids. Proteinase K is an endopeptidase with a preference for cleavage between an aliphatic, aromatic, or hydrophobic and any other amino acid, however, it will digest any peptidic bond if added in excess and over long incubation periods. […]
To test whether treated Nex mixtures were toxic to T cells, T cell stimulation was measured in the presence of a high concentration (10 μg/ml) of treated Nex and a suboptimal concentration of untreated Nex. […]

didehydroxymycobactin [DDM]
ability to stimulate T cell proliferation after protease treatment: did not diminish
